Where two headings read alike, the source gives them in different places.
How the values were obtained:
Format in all cases: cell-based
Micrococcus luteus B-109 = experiment: Agar-well diffusion, bactericidal activity; conditions: Micrococcus luteus
How it was run: (§1)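 Bacteria spread on agar (BP medium; GYCa for X. campestris; pH 7.2–7.4) with 6-mm wells, each receiving 150 μL compound solution. Cultures grown at 28 °C; growth-inhibition zone width measured after 36–40 h.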

[1] = tested on: Pectobacterium atrosepticum 1043; experiment: Agar-well diffusion, bactericidal activity; conditions: Pectobacterium atrosepticum, 1043, 2 mM/L
How it was run: as §1

[2] = tested on: Pectobacterium carotovorum subsp. carotovorum MI; experiment: Agar-well diffusion, bactericidal activity; conditions: Pectobacterium carotovorum, 2 mM/L
How it was run: as §1

[3] = tested on: Pseudomonas fluorescens EL-2.1; experiment: Agar-well diffusion, bactericidal activity; conditions: Pseudomonas fluorescens, EL2.1, 2 mM/L
How it was run: as §1

[4] = tested on: Xanthomonas campestris B-610; experiment: Agar-well diffusion, bactericidal activity; conditions: Xanthomonas campestris
How it was run: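 Agar-well diffusion on GYCa agar (pH 7.2–7.4) seeded with bacterial suspension; 150 μL compound solution placed in 6-mm wells. Inhibition zone width measured after 36–40 h incubation.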

[5] = tested on: five representative phytopathogens; experiment: Agar-well diffusion, bactericidal activity over the panel of phytopathogens; conditions: 36 h, 2 mM solutions; dependent on the test system used; read-out: inhibition zone width (mm), range over the test systems
Text: Plant pathogenic bacterial strains Micrococcus luteus B-109, Pectobacterium atrosepticum 1043, Pectobacterium carotovorum subsp. carotovorum MI, Pseudomonas fluorescens EL-2.1, and Xanthomonas campestris B-610 and the fungal strain Fusarium oxysporum IBPPM 543 were from the Collection of Rhizosphere Microorganisms, IBPPM RAS (WFCC no. 975, WDCM no. 1021) (CM IBPPM, http://collection.ibppm.ru). The pathogenic fungus Phytophthora cactorum VKM F-985, provided by the All-Russian Collection of Microorganisms (VKM) and deposited at the A.E. Favorsky Irkutsk Institute of Chemistry, SB RAS, was also used as a test organism. Bacteria M. luteus, P. carotovorum subsp. carotovorum, P. atrosepticum, and P. fluorescens were grown in a meat–peptone medium (BP), and X. campestris was grown in the medium with glucose, yeast extract, and calcium carbonate (GYCa). Solid media contained Bacto agar (18 g/L); pH was adjusted to 7.2–7.4. All bacterial cultures were grown at 28 °C. The mycelial cultures of F. oxysporum and P. cactorum were grown on a glucose–peptone–yeast (GPY) nutrient medium at 27 °C. For inoculum preparation, both fungal strains were initially grown on the agar GPY in Petri dishes and then transferred into the seed medium by punching out 5 mm of the agar plate culture with a self-designed cutter.
The antibacterial and antifungal activities of the compounds were explored using the agar-well diffusion method and the technique of mycelial radial growth inhibition. The method of diffusion in agar (measuring the diameter of growth inhibition zones) was used to determine the bactericidal activity. The 6-mm wells were made in agar medium (GYCa for Xanthomonas campestris or BP for other bacteria). Bacterial suspensions were distributed over the agar surface, and the tested compound’s solution (150 μL) was added to each well. The width of growth inhibition zones around the wells was determined after incubation for 36–40 h.

[6] = tested on: Fusarium oxysporum IBPPM 543; experiment: Mycelial radial growth inhibition; conditions: Fusarium oxysporum; for inhibition of growth at 1 µM: 1 nmol/mL; for inhibition of growth at 1 µM / inhibition of growth at 5 µM / inhibition of growth at 30 µM / inhibition of growth at 40 µM: read-out: Inhibition value, I (%); for inhibition of growth at 5 µM: 5 nmol/mL; for inhibition of growth at 30 µM: 30 nmol/mL; for inhibition of growth at 40 µM: 40 nmol/mL
How it was run: (§2)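 Compounds mixed into molten GPY agar at various concentrations; centre inoculated with a 5-mm mycelial plug from 10-day cultures and incubated at 27 °C. Colony diameter compared with untreated control until control plate was covered (usually 12 days); ≥4 replicates in two experiments.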

[7] = tested on: Phytophthora cactorum VKM F-985; experiment: Mycelial radial growth inhibition; conditions: Phytophthora cactorum; for inhibition of growth at 1 µM: 1 nmol/mL; for inhibition of growth at 1 µM / inhibition of growth at 3 µM / inhibition of growth at 7 µM / inhibition of growth at 20 µM / inhibition of growth / inhibition of growth at 40 µM: read-out: Inhibition value, I (%); for inhibition of growth at 3 µM: 3 nmol/mL; for inhibition of growth at 7 µM: 7 nmol/mL; for inhibition of growth at 20 µM: 20 nmol/mL; for inhibition of growth: 27 nmol/mL; for inhibition of growth at 40 µM: 40 nmol/mL
How it was run: as §2

[8] = Table S3, read-out: Inhibition zone width (mm), not less
[9] = IBPPM543, 72 h, age of the fungus 3 days
[10] = IBPPM543, 120 h, age of the fungus 5 days
[11] = IBPPM543, 168 h, age of the fungus 7 days
[12] = IBPPM543, 216 h, age of the fungus 9 days
[13] = 120 h, age of the fungus 5 days
[14] = 168 h, age of the fungus 7 days
[15] = 216 h, age of the fungus 9 days

EC50 ([6]; IBPPM543, 120 h, day 5, read-out: EC50, µg/mL at Day 5, F. oxysporum): 13.9 µg/mL
EC50 ([7]; 120 h, day 5, read-out: EC50, µg/mL at Day 5, P. cactorum): 20 µg/mL
SMILES: Cc1ccc[n+](CC(=O)N/N=C2\C(=O)N(Cc3cccc(C(F)(F)F)c3)c3ccccc32)c1C [Compound 7c]
zone of inhibition at 2000 µM (Micrococcus luteus B-109; B109, 2 mM/L, average of 3 experiments, read-out: width of the inhibition zone (mm), M. luteus): 7 mm
zone of inhibition at 2000 µM (Micrococcus luteus B-109; B109, Table S3, 2 mM/L, read-out: Inhibition zone width (mm), not less): ≥ 7 mm
zone of inhibition at 2000 µM ([1]; average of 3 experiments, read-out: width of the inhibition zone (mm), P. atrosepticum): 6 mm
zone of inhibition at 2000 µM [1, 8]: ≥ 6 mm
zone of inhibition at 2000 µM ([2]; average of 3 experiments, read-out: width of the inhibition zone (mm), P. carotovorum subsp. carotovorum): 7 mm
zone of inhibition at 2000 µM [2, 8]: ≥ 7 mm
zone of inhibition at 2000 µM ([3]; average of 3 experiments, read-out: width of the inhibition zone (mm), Ps. fluorescens): 7 mm
zone of inhibition at 2000 µM [3, 8]: ≥ 7 mm
zone of inhibition at 2000 µM ([4]; B610, 2 mM/L, average of 3 experiments, read-out: width of the inhibition zone (mm), X. campestris): 9 mm
zone of inhibition at 2000 µM ([4]; B610, Table S3, 2 mM/L, read-out: Inhibition zone width (mm), not less): ≥ 9 mm
zone of inhibition at 2000 µM [5]: 6 to 9 mm
inhibition of growth at 1 µM [6, 9]: 22%
inhibition of growth at 5 µM [6, 9]: 36%
inhibition of growth at 30 µM [6, 9]: 45%
inhibition of growth at 40 µM [6, 9]: 57%
inhibition of growth at 1 µM [6, 10]: 21%
inhibition of growth at 5 µM [6, 10]: 35%
inhibition of growth at 30 µM [6, 10]: 41%
inhibition of growth at 40 µM [6, 10]: 63%
inhibition of growth at 1 µM [6, 11]: 15%
inhibition of growth at 5 µM [6, 11]: 27%
inhibition of growth at 30 µM [6, 11]: 44%
inhibition of growth at 40 µM [6, 11]: 66%
inhibition of growth at 1 µM [6, 12]: 10%
inhibition of growth at 5 µM [6, 12]: 22%
inhibition of growth at 30 µM [6, 12]: 36%
inhibition of growth at 40 µM [6, 12]: 64%
inhibition of growth at 1 µM ([7]; 72 h, age of the fungus 3 days): 10%
inhibition of growth at 3 µM ([7]; 72 h, age of the fungus 3 days): 20%
inhibition of growth at 7 µM ([7]; 72 h, age of the fungus 3 days): 26%
inhibition of growth at 20 µM ([7]; 72 h, age of the fungus 3 days): 32%
inhibition of growth ([7]; 72 h, age of the fungus 3 days): 48%
inhibition of growth at 40 µM ([7]; 72 h, age of the fungus 3 days): 55%
inhibition of growth at 1 µM [7, 13]: 11%
inhibition of growth at 3 µM [7, 13]: 18%
inhibition of growth at 7 µM [7, 13]: 22%
inhibition of growth at 20 µM [7, 13]: 27%
inhibition of growth [7, 13]: 36%
inhibition of growth at 40 µM [7, 13]: 56%
inhibition of growth at 1 µM [7, 14]: 12%
inhibition of growth at 3 µM [7, 14]: 17%
inhibition of growth at 7 µM [7, 14]: 22%
inhibition of growth at 20 µM [7, 14]: 25%
inhibition of growth [7, 14]: 33%
inhibition of growth at 40 µM [7, 14]: 44%
inhibition of growth at 1 µM [7, 15]: 11%
inhibition of growth at 3 µM [7, 15]: 16%
inhibition of growth at 20 µM [7, 15]: 9%
inhibition of growth [7, 15]: 28%
inhibition of growth at 40 µM [7, 15]: 41%

Reference: publication PMC10607100, “Anticancer and Antiphytopathogenic Activity of Fluorinated Isatins and Their Water-Soluble Hydrazone Derivatives” (International Journal of Molecular Sciences, 2023)
